Experimental data published in paper PMC6592621 (Experimental neurology, 2019).

Legend:
[1] = in mice; ref Parkinson Study Group, 2007; cited from earlier work
[2] = over 4 weeks in subjects with PD; ref Parkinson Study Group, 2007; cited from earlier work
185 other kinases = details: at 1uM; ref Goodfellow et al., 2013; cited from earlier work
TH+ neurons in the SNpc = format: in vivo, C57BL/6J mice; details: MPTP-treated mice vs neurotoxin vehicle or drug vehicle controls
striatal TH = assay: Western blot of striatal TH in MPTP model; format: in vivo, C57BL/6J mice; details: 20 mg/kg MPTP for 5 days, vs neurotoxin vehicle or drug vehicle
striatal DA = assay: HPLC of striatal neurochemistry in MPTP model; format: in vivo, C57BL/6J mice; details: MPTP 20 mg/kg s.c. 5 days, vs neurotoxin vehicle or drug vehicle
CD68 expression = details: mouse EAE hippocampus; ref Bellizzi et al., 2018; cited from earlier work
p54-JNK = details: treatment in mice; ref Dong et al., 2016; cited from earlier work
p46-JNK = details: treatment in mice; ref Dong et al., 2016; cited from earlier work
p38 = details: treatment in mice; ref Dong et al., 2016; cited from earlier work

## CCSCc1ccc2c(c1)c1c3c(c4c5cc(CSCC)ccc5n5c4c1n2[C@H]1C[C@](O)(C(=O)OC)[C@]5(C)O1)CNC3=O [CEP-1347]
[1]
  brain/plasma ratio: < 0.2
[2]
  safety and tolerability: safe and well tolerated
185 other kinases
  number of other kinases with 50% inhibition: 185

## CN1CC=C(c2ccccc2)CC1 [MPTP, 1-methyl-4-phenyl-1,2,3,6-tetrahydropyridine]
TH+ neurons in the SNpc
  reduction in the number of TH+ neurons in the SNpc: approximately 84%
Striatal TH
  reduction in striatal TH expression: approximately 50%
Striatal DA
  reduction in striatal dopamine: approximately 50%

## CN1CCN(Cc2ccc(-c3cnc4[nH]cc(-c5ccc6[nH]ccc6c5)c4c3)cc2)CC1 [URMC-099]
CD68 expression
  effect on CD68 expression: prevented increased CD68 expression
p54-JNK
  decrease in phosphorylation of p54-JNK: 23.7%
p46-JNK
  decrease in phosphorylation of p46-JNK: 17.3%
p38
  decrease in phosphorylation of p38: 21.5%
